# Reference: ChEMBL document CHEMBL6153028, “Understanding the synergistic sensitization of natural products and antibiotics: An effective strategy to combat MRSA” (2025)
# Tests used:
# Type in all cases: functional
# [1] = tested on: Staphylococcus aureus; test: Synergistic antimicrobial activity against methicillin resistant Staphylococcus aureus 43300 assessed as fractional inhibitory concentration index incubated for 24 hrs in presence of Oxacillin by checkerboard assay
# [2] = tested on: Staphylococcus aureus; test: Synergistic antimicrobial activity against methicillin-resistant Staphylococcus aureus assessed as fractional inhibitory concentration index in presence of gentamicin by checkerboard assay
# [3] = tested on: Staphylococcus aureus; test: Synergistic antibacterial activity against methicillin-resistant Staphylococcus aureus assessed as fractional inhibitory concentration index incubated for 24 hrs in presence of vancomycin by checkerboard assay
# [4] = tested on: Staphylococcus aureus; test: Synergistic antimicrobial activity against methicillin resistant Staphylococcus aureus assessed as fractional inhibitory concentration index incubated for 24 hrs in presence of amikacin by checkerboard assay
# [5] = tested on: Staphylococcus aureus; test: Synergistic antimicrobial activity against methicillin resistant Staphylococcus aureus assessed as fractional inhibitory concentration index incubated for 24 hrs in presence of Oxacillin by checkerboard assay
# [6] = tested on: Staphylococcus aureus; test: Synergistic antimicrobial activity against methicillin resistant Staphylococcus aureus assessed as fractional inhibitory concentration index incubated for 24 hrs in presence of sulbactam by checkerboard assay
# [7] = tested on: Staphylococcus aureus; test: Synergistic antimicrobial activity against methicillin-resistant Staphylococcus aureus assessed as fractional inhibitory concentration index incubated for 24 hrs in presence of ampicillin by checkerboard assay
# [8] = tested on: Staphylococcus aureus; test: Synergistic antimicrobial activity against methicillin resistant Staphylococcus aureus assessed as fractional inhibitory concentration index incubated for 24 hrs in presence of oxytetracycline by checkerboard assay
# [9] = tested on: Staphylococcus aureus; test: Synergistic antimicrobial activity against methicillin-resistant Staphylococcus aureus CCARM 3089 assessed as fractional inhibitory concentration index in presence of oxacillin incubated for 24 hrs by checkerboard assay
# [10] = tested on: Staphylococcus aureus; test: Synergistic antibacterial activity against methicillin resistant Staphylococcus aureus assessed as fractional inhibitory concentration index in presence of norfloxacin; conditions: time 24 hrs
# [11] = tested on: Staphylococcus aureus; test: Synergistic antimicrobial activity against methicillin resistant Staphylococcus aureus assessed as fractional inhibitory concentration index incubated for 24 hrs in presence of Fosfomycin by checkerboard assay
# [12] = tested on: Staphylococcus aureus; test: Synergistic antibacterial activity against methicillin resistant Staphylococcus aureus assessed as fractional inhibitory concentration index in presence of oxacillin incubated for 24 hrs by checkerboard assay
# [13] = tested on: Staphylococcus aureus; test: Synergistic antibacterial activity against methicillin resistant Staphylococcus aureus assessed as fractional inhibitory concentration index in presence of kanamycin incubated for 24 hrs by checkerboard assay
# [14] = tested on: Staphylococcus aureus; test: Synergistic antimicrobial activity against methicillin resistant Staphylococcus aureus 43300 assessed as fractional inhibitory concentration index incubated for 24 hrs in presence of imipenem by checkerboard assay
# [15] = tested on: Staphylococcus aureus; test: Synergistic antimicrobial activity against methicillin resistant Staphylococcus aureus 43300 assessed as fractional inhibitory concentration index incubated for 24 hrs in presence of Cefuroxime by checkerboard assay
# [16] = tested on: Staphylococcus aureus; test: Synergistic antimicrobial activity against methicillin resistant Staphylococcus aureus 43300 assessed as fractional inhibitory concentration index incubated for 24 hrs in presence of cefotaxime by checkerboard assay
# [17] = tested on: Staphylococcus aureus; test: Synergistic antibacterial activity against methicillin resistant Staphylococcus aureus assessed as fractional inhibitory concentration index in presence of ampicillin
# [18] = tested on: Staphylococcus aureus; test: Synergistic antibacterial activity against methicillin resistant Staphylococcus aureus assessed as fractional inhibitory concentration index in presence of ciprofloxacin
# [19] = tested on: Staphylococcus aureus; test: Synergistic antimicrobial activity against methicillin resistant Staphylococcus aureus 43300 assessed as fractional inhibitory concentration index incubated for 24 hrs in presence of Gentamicin by checkerboard assay
# [20] = tested on: Staphylococcus aureus; test: Synergistic antibacterial activity against methicillin-resistant Staphylococcus aureus assessed as fractional inhibitory concentration index in presence of cefoxitin
structure (smiles),measurement,setting,value
COc1ccc2c(c[n+](C)c3c4cc5c(cc4ccc23)OCO5)c1OC.[Cl-] [CHELERYTHRINE CHLORIDE],fractional inhibitory concentration index (FICI),[1],0.5
O=C/C=C/c1ccccc1 [CINNAMALDEHYDE],fractional inhibitory concentration index (FICI),[2],0.37
same,fractional inhibitory concentration index (FICI),[3],0.25
same,fractional inhibitory concentration index (FICI),[4],0.19
same,fractional inhibitory concentration index (FICI),[5],0.25
C[C@H]1COC2=C1C(=O)C(=O)c1c2ccc2c1CCCC2(C)C [CRYPTOTANSHINONE],fractional inhibitory concentration index (FICI),[3],0.37
same,fractional inhibitory concentration index (FICI),[5],0.312
O=C(O[C@@H]1Cc2c(O)cc(O)cc2O[C@@H]1c1cc(O)c(O)c(O)c1)c1cc(O)c(O)c(O)c1 [EPIGALOCATECHIN GALLATE],fractional inhibitory concentration index (FICI),[6],0.19
same,fractional inhibitory concentration index (FICI),[7],0.19
same,fractional inhibitory concentration index (FICI),[8],0.288
O=C(O[C@@H]1O[C@@H]2COC(=O)c3cc(O)c(O)c(O)c3-c3c(cc(O)c(O)c3O)C(=O)O[C@H]2[C@H](OC(=O)c2cc(O)c(O)c(O)c2)[C@H]1OC(=O)c1cc(O)c(O)c(O)c1)c1cc(O)c(O)c(O)c1 [EUGENIIN],fractional inhibitory concentration index (FICI),[9],0.395
O=c1c(-c2ccc(O)cc2)coc2cc(O)cc(O)c12 [GENISTEIN],fractional inhibitory concentration index (FICI),[10],0.38
C=CCc1ccc(O)c(-c2ccc(O)c(CC=C)c2)c1 [HONOKIOL],fractional inhibitory concentration index (FICI),[4],<0.5
same,fractional inhibitory concentration index (FICI),[11],<0.5
CC(C)=CCc1c(-c2ccc(O)cc2O)oc2c(CC=C(C)C)c(O)cc(O)c2c1=O [KUWANON C],fractional inhibitory concentration index (FICI),[12],0.5
same,fractional inhibitory concentration index (FICI),[13],0.375
CC(C)=CCC/C(C)=C/Cc1cc(C2CC(=O)c3c(O)cc(O)cc3O2)c(O)cc1O (centres undefined) [KUWANON E],fractional inhibitory concentration index (FICI),[13],0.5
C=CCc1ccc(O)c(-c2cc(CC=C)ccc2O)c1 [MAGNOLOL],fractional inhibitory concentration index (FICI),[11],<0.5
CC(C)=CCc1c(-c2ccc(O)cc2O)oc2c3c(cc(O)c2c1=O)OC(C)(C)C=C3 [MORUSIN],fractional inhibitory concentration index (FICI),[12],0.375
same,fractional inhibitory concentration index (FICI),[13],0.5
O=C1C=CC(=O)c2ccccc21 [NAPHTHOQUINONE],fractional inhibitory concentration index (FICI),[14],0.5
same,fractional inhibitory concentration index (FICI),[15],0.06
same,fractional inhibitory concentration index (FICI),[16],0.062
CC1(C)CC[C@]2(C(=O)O)CC[C@]3(C)C(=CC[C@@H]4[C@@]5(C)CC[C@H](O)C(C)(C)[C@@H]5CC[C@]43C)[C@@H]2C1 [OLEANOLIC_ACID],fractional inhibitory concentration index (FICI),[17],<0.5
same,fractional inhibitory concentration index (FICI),[5],<0.5
Oc1cc(O)cc(/C=C/c2ccc(O)cc2O)c1 [OXYRESVERATROL],fractional inhibitory concentration index (FICI),[3],0.37
same,fractional inhibitory concentration index (FICI),[18],0.37
O=C(/C=C/C=C/c1ccc2c(c1)OCO2)N1CCCCC1 [PIPERINE],fractional inhibitory concentration index (FICI),[19],0.5
O=C(O)c1cc(O)c2c(c1)C(=O)c1cccc(O)c1C2=O [RHEIN],fractional inhibitory concentration index (FICI),[5],0.37
CC(C)=CC[C@@H](O)C1=CC(=O)c2c(O)ccc(O)c2C1=O [SHIKONIN],fractional inhibitory concentration index (FICI),[2],0.5
same,fractional inhibitory concentration index (FICI),[4],0.37
same,fractional inhibitory concentration index (FICI),[20],0.57
C[C@H]1[C@H](C)CC[C@]2(C(=O)O)CC[C@]3(C)C(=CC[C@@H]4[C@@]5(C)CC[C@H](O)C(C)(C)[C@@H]5CC[C@]43C)[C@H]12 [URSOLIC ACID],fractional inhibitory concentration index (FICI),[17],<0.5
same,fractional inhibitory concentration index (FICI),[5],<0.5
